Reference: publication PMC7781520 (Channels, 2020)

Molecular target: Kv1.3 voltage-gated K+ channel (Homo sapiens, UniProt P22001)
Assay type: cell-based

Kv1.3 voltage-gated K+ channel, sequence (P22001 whole entry): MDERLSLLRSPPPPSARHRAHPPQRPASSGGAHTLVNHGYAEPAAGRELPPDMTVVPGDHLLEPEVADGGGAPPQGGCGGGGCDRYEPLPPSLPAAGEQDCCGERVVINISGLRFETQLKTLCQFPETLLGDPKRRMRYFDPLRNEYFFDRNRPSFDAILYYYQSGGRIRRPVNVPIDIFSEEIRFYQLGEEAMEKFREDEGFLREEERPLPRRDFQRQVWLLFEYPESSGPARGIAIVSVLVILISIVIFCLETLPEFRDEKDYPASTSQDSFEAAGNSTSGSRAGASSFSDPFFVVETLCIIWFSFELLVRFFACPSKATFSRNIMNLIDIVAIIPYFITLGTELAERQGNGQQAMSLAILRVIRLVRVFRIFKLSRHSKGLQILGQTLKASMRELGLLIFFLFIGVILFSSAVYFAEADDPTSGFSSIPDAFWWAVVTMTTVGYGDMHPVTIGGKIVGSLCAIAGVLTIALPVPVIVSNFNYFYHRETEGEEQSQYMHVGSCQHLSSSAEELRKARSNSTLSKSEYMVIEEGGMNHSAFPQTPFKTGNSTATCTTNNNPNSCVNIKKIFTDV

For `CC[N+](CC)(CC)CC` [TEA+], the IC50 was 10.3 ± 0.71 mM.
